This is an account of results in patent publication US5116855A, “Rhodanine derivatives and pharmaceutical compositions” (Nisshin Flour Milling Co., Ltd., priority 1989, dated 1992).

The target in the experiment is T1, aldose reductase (Rattus norvegicus, UniProt P07943).
T1 construct: the lenses were excised and homogenized in cold distilled water; from tissue; host or cells: lens of male SD rats, homogenate supernatant (crude enzyme)
Description: Inhibitory activity against aldose reductase (crude enzyme from rat lenses, NADPH oxidation at 340 nm, D,L-glyceraldehyde substrate). The experiment is classed as biochemical. Conditions: aldose reductase from SD rat lenses, pH 6.2, 30° C.; for inhibition at 10 µM: pH 6.2, 10^-5 M; for inhibition at 10 µM / inhibition at 1 µM: read-out: Percentage of inhibition (%); for inhibition at 1 µM: pH 6.2, 10^-6 M. How it is done:
The compounds of the present invention were evaluated for the inhibitory activity against aldose reductase according to the following assay procedure.
Enzyme activity was assayed according to the modification [Biochemical Pharmacology, 25, 2505 (1976)] of the method described in J. Biol. Chem., 240, 877-882 (1965).
SD strain male rats were sacrificed by decapitation, the lenses were excised and homogenized in cold distilled water. The homogenate was then centrifuged and the supernatant was used as the crude aldose reductase solution.
Separately, a 0.1 M sodium phosphate buffer (pH 6.2) containing 0.4 M ammonium sulfate was prepared at 30° C. In this buffer were dissolved the present compound, the crude aldose reductase solution and nicotinamide-adenine dinucleotide phosphate, reduced form (NADPH). The mixture was preincubated at 30° C. for 3 minutes and the reaction was initiated by addition of D,L-glyceraldehyde. In this case, the concentration of the present compound dissolved was 10^-5 M and 10^-6 M, respectively. The total amount of the assay mixture was 1.0 ml, containing 0.16 mM of NADPH, 10 mM of D,L-glyceraldehyde and 0.010-0.016 units of aldose reductase.
The inhibitory activity of the present compounds against aldose reductase was measured using each 1.0 ml of the reaction mixture containing the present compound in the above concentration. In this measurement, the rate of NADPH oxidation was followed by recording the decrease in absorbance at 340 nm. The inhibitory activity of the present compounds against aldose reductase as measured was expressed in percentage of inhibition (%) as a relative activity based on a control value.

Structures are written as SMILES.

Turning to `CC(C=Cc1cc(Cl)ccc1OCC(=O)OCc1ccccc1)=C1SC(=S)NC1=O` [Example 50, Benzyl 4-chloro-2-[3-(4-oxo-2-thioxo-5-thiazolinylidene)-1-butenyl]phenoxyacetate], the inhibition at 10 µM turned out to be 48%.
For `O=C(O)CCC(C=Cc1ccco1)=C1SC(=S)NC1=O` [Example 35, 6-(2-Furyl)-4-(4-oxo-2-thioxo-5-thiazolidinylidene)-5-hexenoic acid], the inhibition at 10 µM was determined as 72.3%.
`CCOC(=O)CCC(C=Cc1cccc(O)c1)=C1SC(=S)NC1=O` (single isomer, unassigned) [8 Isomer A]: the inhibition at 10 µM was determined as 57.9%.
As for `COC(=O)COc1ccc(Cl)cc1C=CC(C)=C1SC(=S)NC1=O` [Example 49, Methyl 4-chloro-2-[3-(4-oxo-2-thioxo-5-thiazolinylidene)-1-butenyl]phenoxyacetate], the inhibition at 10 µM was found to be 80% and the inhibition at 1 µM came to 30.5%.
As for `COC(=O)COc1c(OC)cc(C=CC(C)=C2SC(=S)NC2=O)cc1OC` [Example 48, Methyl 2,6-dimethoxy-4-[3-(4-oxo-2-thioxo-5-thiazolinylidene)-1-butenyl]phenoxyacetate], the inhibition at 10 µM came out at 69.1%.
On to `CCOC(=O)COc1ccccc1C=CC(C)=C1SC(=S)NC1=O` [Example 39, Ethyl 2-[3-(4-oxo-2-thioxo-5-thiazolinylidene)-1-butenyl]phenoxacetate], for which the inhibition at 10 µM came to 62.6% and the inhibition at 1 µM came to 50.9%.
Take `CCCC(C=Cc1ccc(C(=O)O)cc1)=C1SC(=S)NC1=O` (single isomer, unassigned) [3 Isomer A]: the inhibition at 10 µM turned out to be 77.1% and the inhibition at 1 µM came to 29.7%.
Consider `COc1cc(C=C(C)C=C2SC(=S)NC2=O)ccc1OCC(=O)O` [Example 76, 2-Methoxy-4-[2-methyl-3-(4-oxo-2-thioxo-5-thiazolinylidene)-1-propenyl]phenoxyacetic acid], for which the inhibition at 10 µM came to 88.5% and the inhibition at 1 µM amounted to 58.6%.
Regarding `CCOc1cc(C=CC(C)=C2SC(=S)NC2=O)ccc1OCC(=O)OC` [Example 44, Methyl 2-ethoxy-4-[3-(4-oxo-2-thioxo-5-thiazolinylidene)-1-butenyl]phenoxyacetate], the inhibition at 10 µM was determined as 39.1%.
For `COc1cc(C=CC(C)=C2SC(=S)NC2=O)ccc1OCC(=O)O` [Example 32, 4-[3-(4-Oxo-2-thioxo-5-thiazolidinylidene)-1-butenyl]-2-methoxyphenoxyacetic acid], the inhibition at 10 µM was determined as 92.5% and the inhibition at 1 µM stood at 84.7%.
As for `CCCCOC(=O)COc1ccc(Cl)cc1C=CC(C)=C1SC(=S)NC1=O` (single isomer, unassigned) [51 Isomer A], the inhibition at 10 µM was found to be 51.4%.
Regarding `CCCCOC(=O)COc1ccc(Cl)cc1C=CC(C)=C1SC(=S)NC1=O` (single isomer, unassigned) [51 Isomer B], the “Percentage of inhibition (%)” value (10^-5 M) came to 58.7%.
Consider `COC(=O)COc1ccccc1C=C(C)C=C1SC(=S)NC1=O` [Example 63, Methyl 2-[2-methyl-3-(4-oxo-2-thioxo-5-thiazolinylidene)-1-propenyl]phenoxyacetate], for which the “Percentage of inhibition (%)” value was 80.5% (10^-5 M) and 32.2% (10^-6 M).
Take `CCCCCCC(C=Cc1ccc(OCc2nn[nH]n2)cc1)=C1SC(=S)NC1=O` [Example 4]: the inhibition at 10 µM is 62.6% and the inhibition at 1 µM was 29.9%.
Turning to `CC(C=Cc1cc(Cl)ccc1OCC(=O)O)=C1SC(=S)NC1=O` [Example 75, 4-Chloro-2-[3-(4-oxo-2-thioxo-5-thiazolinylidene)-1-butenyl]phenoxyacetic acid], the inhibition at 10 µM came out at 95.3% and the inhibition at 1 µM was determined as 87.6%.
On to `CCOc1cc(CCC(C)=C2SC(=S)NC2=O)ccc1OCC(=O)O` [Example 71, 2-Ethoxy-4-[3-(4-oxo-2-thioxo-5-thiazolinylidene)butyl]phenoxyacetic acid], for which the inhibition at 10 µM was determined as 73.8%.
Consider `CC(C=Cc1cc(C(C)C)ccc1OCC(=O)O)=C1SC(=S)NC1=O` [Example 85, 4-Isopropyl-2-[3-(4-oxo-2-thioxo-5-thiazolinylidene)-1-butenyl]phenoxyacetic acid], for which the inhibition at 10 µM was 92% and the inhibition at 1 µM was determined as 77.6%.
Taken in the same sequence, the figures for `CCOC(=O)COc1ccc(C=CC(C)=C2SC(=S)N(C)C2=O)cc1OC` (single isomer, unassigned) [55 Isomer A] were 38.1% and 23.8%.
For the compound `COC(=O)COc1ccc(C(C)C)cc1C=CC(C)=C1SC(=S)NC1=O` (single isomer, unassigned) [62 Isomer A], the inhibition at 10 µM is 48.3%.
With `CCOC(=O)CCC(C=Cc1ccc(C#N)cc1)=C1SC(=S)NC1=O` [Example 7, Ethyl 6-(4-cyanophenyl)-4-(4-oxo-2-thioxo-5-thiazolidinylidene)-5-hexenoate], the inhibition at 10 µM was determined as 50.9%.
Regarding `O=C1NC(=S)SC1=Cc1ccc(OCCCCc2nnn[nH]2)cc1` [Example 20, 5-{4-[4-(1H-Tetrazol-5-yl)butyloxy]benzylidene}-4-oxo-2-thioxothiazolidine], the inhibition at 10 µM is 84% and the inhibition at 1 µM was determined as 43.9%.
With `CC(C=Cc1cc(Br)ccc1OCC(=O)O)=C1SC(=S)NC1=O` [Example 79, 4-Bromo-2-[3-(4-oxo-2-thioxo-5-thiazolinylidene)-1-butenyl]phenoxyacetic acid], the inhibition at 10 µM was 95.8% and the inhibition at 1 µM stood at 86.1%.
For the compound `CC(C(=O)Nc1ccccc1C(=O)O)=C1SC(=S)NC1=O` [Example 36, N-[2-(4-Oxo-2-thioxo-5-thiazolidinylidene)propionyl]anthranilic acid], the inhibition at 10 µM came out at 94% and the inhibition at 1 µM was determined as 80%.
Regarding `CCCCCCC(C=Cc1ccc(C(=O)O)cc1)=C1SC(=S)NC1=O` (single isomer, unassigned) [26 Isomer A], the inhibition at 1 µM amounted to 68.9%. Under “10^-5 M”, the “Percentage of inhibition (%)” value was 92.0%.
`Cc1ccsc1C=CC(CCC(=O)O)=C1SC(=S)NC1=O` [Example 31, 6-(3-Methyl-2-thienyl)-4-(4-oxo-2-thioxo-5-thiazolidinylidene)-5-hexenoic acid]: the inhibition at 10 µM was 83.6% and the inhibition at 1 µM stood at 39.8%.
Turning to `COc1ccc(OCC(=O)O)c(C=CC(C)=C2SC(=S)NC2=O)c1` [Example 88, 4-Methoxy-2-[3-(4-oxo-2-thioxo-5-thiazolinylidene)-1-butenyl]phenoxyacetic acid], the inhibition at 10 µM is 93.3% and the inhibition at 1 µM was determined as 79.1%.
Take `COC(=O)COc1ccc(C(F)(F)F)cc1C=CC(C)=C1SC(=S)NC1=O` [Example 66, Methyl 4-trifluoromethyl-2-[3-(4-oxo-2-thioxo-5-thiazolinylidene)-1-butenyl]phenoxyacetate]: the inhibition at 10 µM worked out at 79.9% and the inhibition at 1 µM stood at 45.6%.
Regarding `CC(C=Cc1ccc(OCC(=O)O)cc1)=C1SC(=S)NC1=O` (single isomer, unassigned) [21 Isomer B], the “Percentage of inhibition (%)” value (10^-5 M) is given as 89.8%.
For `CC(C=Cc1ccc(OCC(=O)O)c(OCC(=O)O)c1)=C1SC(=S)NC1=O` (single isomer, unassigned) [83 Isomer A], the inhibition at 10 µM is 82.4% and the inhibition at 1 µM was 43.4%.
On to `COC(=O)COc1ccccc1C=C(C)C=C1SC(=S)NC1=O` [Example 41, Methyl 2-[2-methyl-3-(4-oxo-2-thioxo-5-thiazolinylidene)-1-propenyl]phenoxyacetate], for which the inhibition at 10 µM worked out at 86.2% and the inhibition at 1 µM was determined as 48.5%.

The term inhibition denotes the percentage by which the read-out fell short of the control.
